Reference: ChEMBL document CHEMBL1137869 (Bioorg Med Chem Lett, 2004)

How the values were obtained:
[1] = target: T1, Platelet-derived growth factor receptor beta (Homo sapiens, UniProt P09619); experiment: In vitro inhibition of Platelet derived growth factor receptor beta autophosphorylation in MG-63 cells with 45% human plasma; format: cell-based
[2] = target: T1, Platelet-derived growth factor receptor beta; experiment: In vitro inhibition of Platelet derived growth factor receptor beta autophosphorylation in MG-63 cells without plasma; format: cell-based
[3] = Inhibition of PDGFR-beta/Flt-3 chimeric receptor autophosphorylation in CHO cells; format: cell-based
[4] = Inhibition of PDGFR-beta/c-Kit chimeric receptor autophosphorylation in CHO cells; format: cell-based
[5] = target: T1, Platelet-derived growth factor receptor beta; experiment: Inhibition of Platelet derived growth factor receptor beta autophosphorylation in CHO cells; format: cell-based
[6] = Area under curve was determined in rat by peroral dose at 30 mg/kg; format: ADME, organism-based; parameters: dose 30 mg/kg, route oral; details: in vivo, po
[7] = Plasma half life was determined in dog by iv/po dose at 8.09 mg/kg; format: ADME, organism-based, Canis lupus familiaris; parameters: dose 8.09 mg/kg
[8] = Plasma half life was determined in monkey by iv/po dose at 10 mg/kg; format: ADME, organism-based; parameters: dose 10 mg/kg; details: cercopithecidae
[9] = Maximum concentration was determined in rat by iv/po dose at 30 mg/kg; format: ADME, organism-based; parameters: dose 30 mg/kg; details: in vivo
[10] = Maximum concentration was determined in dog by iv/po dose at 8.09 mg/kg; format: ADME, organism-based, Canis lupus familiaris; parameters: dose 8.09 mg/kg; details: in vivo
[11] = Maximum concentration was determined in monkey by iv/po dose at 10 mg/kg; format: ADME, organism-based; parameters: dose 10 mg/kg; details: cercopithecidae, in vivo
[12] = Bioavailability in rat (dose 30 mg/kg i.v./p.o.); format: ADME, organism-based; details: in vivo, po
[13] = Percent bioavailability was determined in dog by iv/po dose at 8.09 mg/kg; format: ADME, organism-based, Canis lupus familiaris; details: in vivo
[14] = Plasma half life was determined in rat by iv/po dose at 30 mg/kg; format: ADME, organism-based; parameters: dose 30 mg/kg
[15] = Maximum concentration was determined in dog by iv/po dose at 5 mg/kg; format: ADME, organism-based, Canis lupus familiaris; parameters: dose 5 mg/kg; details: in vivo
[16] = Maximum concentration was determined in rat by iv/po dose at 10 mg/kg; format: ADME, organism-based; parameters: dose 10 mg/kg; details: in vivo
[17] = Area under curve was determined in dog by peroral dose at 5 mg/kg; format: ADME, organism-based, Canis lupus familiaris; parameters: dose 5 mg/kg, route oral; details: in vivo, po
[18] = Area under curve was determined in rat by peroral dose at 10 mg/kg; format: ADME, organism-based; parameters: dose 10 mg/kg, route oral; details: in vivo, po
[19] = Percent bioavailability was determined in dog by iv/po dose at 5 mg/kg; format: ADME, organism-based, Canis lupus familiaris; details: in vivo
[20] = Percent bioavailability was determined in rat by iv/po dose at 10 mg/kg; format: ADME, organism-based; details: in vivo
[21] = Percent bioavailability was determined in monkey by iv/po dose at 10 mg/kg; format: ADME, organism-based; details: cercopithecidae, in vivo
[22] = Plasma half life was determined in dog by iv/po dose at 5 mg/kg; format: ADME, organism-based, Canis lupus familiaris; parameters: dose 5 mg/kg
[23] = Plasma half life was determined in rat by iv/po dose at 10 mg/kg; format: ADME, organism-based; parameters: dose 10 mg/kg
[24] = Plasma half life was determined in dog by iv/po dose at 8.69 mg/kg; format: ADME, organism-based, Canis lupus familiaris; parameters: dose 8.69 mg/kg
[25] = Maximum concentration was determined in dog by iv/po dose at 8.69 mg/kg; format: ADME, organism-based, Canis lupus familiaris; parameters: dose 8.69 mg/kg; details: in vivo
[26] = Percent bioavailability was determined in dog by iv/po dose at 8.69 mg/kg; format: ADME, organism-based, Canis lupus familiaris; details: in vivo

T1 sequence (P09619 whole entry): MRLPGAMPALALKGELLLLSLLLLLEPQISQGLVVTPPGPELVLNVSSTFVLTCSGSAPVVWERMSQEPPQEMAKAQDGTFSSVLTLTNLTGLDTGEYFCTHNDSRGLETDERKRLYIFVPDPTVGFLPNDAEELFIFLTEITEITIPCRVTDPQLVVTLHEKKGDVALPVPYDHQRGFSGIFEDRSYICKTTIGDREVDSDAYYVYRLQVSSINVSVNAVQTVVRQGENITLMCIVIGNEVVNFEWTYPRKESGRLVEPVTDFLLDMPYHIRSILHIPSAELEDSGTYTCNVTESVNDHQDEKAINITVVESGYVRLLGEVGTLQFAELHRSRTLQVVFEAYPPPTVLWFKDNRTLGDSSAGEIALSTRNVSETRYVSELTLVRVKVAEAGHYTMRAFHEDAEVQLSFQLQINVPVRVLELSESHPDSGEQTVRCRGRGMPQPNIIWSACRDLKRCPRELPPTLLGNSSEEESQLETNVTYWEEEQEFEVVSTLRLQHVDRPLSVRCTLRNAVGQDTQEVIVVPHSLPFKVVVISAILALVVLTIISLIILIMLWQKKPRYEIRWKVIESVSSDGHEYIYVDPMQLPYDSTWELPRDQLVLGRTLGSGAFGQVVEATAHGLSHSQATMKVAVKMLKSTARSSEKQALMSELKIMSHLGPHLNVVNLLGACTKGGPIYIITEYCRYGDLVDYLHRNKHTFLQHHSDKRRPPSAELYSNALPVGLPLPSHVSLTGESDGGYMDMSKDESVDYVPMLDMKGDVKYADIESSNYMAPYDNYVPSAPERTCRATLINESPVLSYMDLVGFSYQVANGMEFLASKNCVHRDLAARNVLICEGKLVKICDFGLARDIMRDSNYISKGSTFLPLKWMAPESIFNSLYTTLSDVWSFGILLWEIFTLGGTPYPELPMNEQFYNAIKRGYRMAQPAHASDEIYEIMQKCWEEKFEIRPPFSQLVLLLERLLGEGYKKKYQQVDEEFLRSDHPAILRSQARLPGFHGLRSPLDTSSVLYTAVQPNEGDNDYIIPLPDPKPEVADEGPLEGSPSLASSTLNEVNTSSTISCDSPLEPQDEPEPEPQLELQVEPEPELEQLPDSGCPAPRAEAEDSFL

Row | SMILES | IC50 [1] | IC50 [2] | IC50 [3] | IC50 [4] | IC50 [5] | further results
1 | COc1cc2c(N3CCN(C(=S)Nc4ccc(Cl)nc4)CC3)ncnc2cc1OCCN1CCCCC1 | 510 nM | 890 nM | 19800 nM | 500 nM | 360 nM | 
2 | COc1cc2c(N3CCN(/C(S)=N\Cc4ccc(C)o4)CC3)ncnc2cc1OCCCN1CCCCC1 | 90 nM | 80 nM | > 30000 nM | 50 nM | 80 nM | 
3 | COc1cc2c(N3CCN(C(=S)Nc4ccncc4)CC3)ncnc2cc1OCCCN1CCCCC1 | 60 nM | 220 nM | 24200 nM | 1850 nM | 580 nM | 
4 | COc1cc2c(N3CCN(C(=NC#N)Nc4ccncc4)CC3)ncnc2cc1OCCCN1CCCCC1 | 17100 nM | 31700 nM |  |  |  | 
5 | COc1cc2c(N3CCN(/C(S)=N\Cc4ccc(C)nc4)CC3)ncnc2cc1OCCCN1CCCCC1 | 90 nM | 140 nM | > 30000 nM | 240 nM | 140 nM | 
6 | COc1cc2c(N3CCN(C(=S)NCc4ccc(C(F)(F)F)nc4)CC3)ncnc2cc1OCCN1CCCCC1 | 90 nM | 1030 nM | > 30000 nM | 240 nM | 150 nM | 
7 | COc1cc2c(N3CCN(C(=S)NCc4cnc(C)cn4)CC3)ncnc2cc1OCCCN1CCCCC1 | 50 nM | 140 nM | > 30000 nM | 1520 nM | 1350 nM | 
8 | COc1cc2c(N3CCN(/C(=N\c4ccc(-c5ccccn5)cc4)NC#N)CC3)ncnc2cc1OCCCN1CCCCC1 | 370 nM | 420 nM |  |  |  | 
9 | COc1cc2c(N3CCN(/C(S)=N\Cc4ccco4)CC3)ncnc2cc1OCCN1CCCC1 | 310 nM | 160 nM | > 30000 nM | 1800 nM | 290 nM | 
10 | COc1cc2c(N3CCN(/C(S)=N\c4ccc(-c5cccc[n+]5[O-])cc4)CC3)ncnc2cc1OCCN1CCCCC1 | 430 nM | 800 nM |  |  |  | 
11 | COc1cc2c(N3CCN(C(=S)NCc4ccc(Cl)nc4)CC3)ncnc2cc1OCCN1CCCCC1 | 80 nM | 1010 nM | > 30000 nM | 70 nM | 50 nM | 
12 | COc1cc2c(N3CCN(C(=S)Nc4ccc(-c5ccccc5)nc4)CC3)ncnc2cc1OCCCN1CCCCC1 | 270 nM | 360 nM | 5550 nM | 190 nM | 100 nM | 
13 | COc1cc2c(N3CCN(/C(=N\Cc4ccc5c(c4)OCO5)NC#N)CC3)ncnc2cc1OCCCN1CCCCC1 | 590 nM | 320 nM |  |  |  | 
14 | COc1cc2c(N3CCN(/C(S)=N\c4ccnc(C#N)c4)CC3)ncnc2cc1OCCN1CCCCC1 | 1790 nM | 1540 nM |  |  |  | 
15 | COc1cc2c(N3CCN(C(=S)NCc4cnc(C)cn4)CC3)ncnc2cc1OCCN1CCCCC1 | 60 nM | 50 nM | > 30000 nM | 890 nM | 250 nM | AUC [6]: 32.2 µg/h/mL; half-life [24]: 10.8 h; half-life [8]: 20.9 h; Cmax [9]: 239 ng/mL; Cmax [25]: 297 ng/mL; Cmax [11]: 235 ng/mL; bioavailability [12]: 13.7%; bioavailability [26]: 38.8%; half-life [14]: 14.1 h
16 | COc1cc2c(N3CCN(/C(S)=N\Cc4ccc(C(F)(F)F)nc4)CC3)c(C#N)cnc2cc1OCCCN1CCCCC1 | 10 nM | 3 nM | 40 nM | 20 nM | 10 nM | 

Continued by falling IC50 [1], values first:

Row | IC50 [1] | IC50 [2] | IC50 [3] | IC50 [4] | IC50 [5] | SMILES | further results
17 | 5040 nM | 2000 nM |  |  |  | COc1cc2c(N3CCN(/C(S)=N\c4nccs4)CC3)ncnc2cc1OCCN1CCCCC1 | 
18 | 3590 nM | 12100 nM |  |  |  | COc1cc2c(N3CCN(C(=S)NCc4ccncc4)CC3)ncnc2cc1OCCN1CCCCC1 | 
19 | 2930 nM | 5810 nM |  |  |  | COc1cc2c(N3CCN(C(=S)NCc4ccc(N)nc4)CC3)ncnc2cc1OCCN1CCCCC1 | 
20 | 2370 nM | 10500 nM |  |  |  | COc1cc2c(N3CCN(/C(=N\Cc4cc(C)on4)NC#N)CC3)ncnc2cc1OCCCN1CCCCC1 | 
21 | 2180 nM | 3420 nM |  |  |  | COc1cc2c(N3CCN(/C(=N\Cc4ccc(C(F)(F)F)nc4)NC#N)CC3)ncnc2cc1OCCCN1CCCCC1 | 
22 | 1550 nM | 800 nM |  |  |  | COc1cc2c(N3CCN(C(=NC#N)Nc4ccc(C(C)(C)C)cc4)CC3)ncnc2cc1OCCCN1CCCCC1 | 
23 | 1400 nM | 1130 nM | 6770 nM | 790 nM | 100 nM | COc1cc2c(N3CCN(/C(S)=N\Cc4ccc(C(F)(F)F)nc4Cl)CC3)ncnc2cc1OCCN1CCCCC1 | 
24 | 1330 nM | 420 nM |  |  |  | COc1cc2c(N3CCN(/C(S)=N\c4ccc(Cl)nn4)CC3)ncnc2cc1OCCN1CCCCC1 | 
25 | 770 nM | 1790 nM |  |  |  | COc1cc2c(N3CCN(/C(S)=N\Cc4ccnc(Cl)c4)CC3)ncnc2cc1OCCN1CCCCC1 | 
26 | 740 nM | 100 nM |  |  |  | COc1cc2c(N3CCN(/C(S)=N\c4ccsc4)CC3)ncnc2cc1OCCN1CCCCC1 | 
27 | 710 nM | 2110 nM |  |  |  | COc1cc2c(N3CCN(/C(S)=N\Cc4cccnc4)CC3)ncnc2cc1OCCN1CCCCC1 | 
28 | 400 nM | 240 nM | > 30000 nM | 2970 nM | 980 nM | COc1cc2c(N3CCN(/C(S)=N\c4ccncc4)CC3)ncnc2cc1OCCN1CCCCC1 | 
29 | 350 nM | 1150 nM |  |  |  | COc1cc2c(N3CCN(C(=S)NCc4ccc(C)nc4Cl)CC3)ncnc2cc1OCCN1CCCCC1 | 
30 | 150 nM | 180 nM | 3190 nM | 100 nM | 70 nM | COc1cc2c(N3CCN(/C(S)=N\c4ccc(-c5ccccn5)cc4)CC3)ncnc2cc1OCCN1CCCCC1 | Cmax [15]: 38.9 ng/mL; half-life [8]: 8.46 h; Cmax [16]: 34.1 ng/mL; Cmax [11]: 143 ng/mL; AUC [17]: 333 ng·h/mL; AUC [18]: 26.9 µg/h/mL; bioavailability [19]: 30.2%; bioavailability [20]: 8.82%; bioavailability [21]: 68%; half-life [22]: 7.58 h; half-life [23]: 17.4 h
31 | 120 nM | 20 nM | 2910 nM | 60 nM | 40 nM | COc1cc2c(N3CCN(C(=S)NCc4ccc5c(c4)OCO5)CC3)ncnc2cc1OCCN1CCCCC1 | AUC [6]: 69 µg/h/mL; half-life [7]: 15.7 h; half-life [8]: 9.25 h; Cmax [9]: 146 ng/mL; Cmax [10]: 456 ng/mL; Cmax [11]: 92.5 ng/mL; bioavailability [12]: 39.1%; bioavailability [13]: 102%; half-life [14]: 26.7 h
